Read-outs that look alike come from different tables or passages of the source.
Experiments:
Septoria tritici = assay: In vivo preventive test on Septoria tritici (wheat); settings: 500 ppm of active ingredient, evaluated 24 days after inoculation
Procedure: (§1) Solvent: 5% by volume of Dimethyl sulfoxide
(§2) • 10% by volume of Acetone Emulsifier: 1 μl of Tween® 80 per mg of active ingredient
(§3) The active ingredients are made soluble and homogenized in a mixture of Dimethyl sulfoxide/Acetone/Tween® 80 and then diluted in water to the desired concentration.
(§4) The young plants of wheat are treated by spraying the active ingredient prepared as described above. Control plants are treated only with an aqueous solution of Acetone/Dimethyl sulfoxide/Tween® 80.
After 24 hours, the plants are contaminated by spraying the leaves with an aqueous suspension of Septoria tritici spores. The contaminated wheat plants are incubated for 72 hours at 18° C. and at 100% relative humidity and then for 21 days at 20° C. and at 90% relative humidity.
The test is evaluated 24 days after the inoculation. 0% means an efficacy which corresponds to that of the control plants while an efficacy of 100% means that no disease is observed.

Sphaerotheca fuliginea = assay: In vivo preventive test on Sphaerotheca fuliginea (powdery mildew on cucurbits); settings: gherkin, evaluated 15 days after inoculation
Procedure: as §1, §2, §3
The young plants of gherkin are treated by spraying the active ingredient prepared as described above. Control plants are treated only with an aqueous solution of Acetone/Dimethyl sulfoxide/Tween® 80.
After 24 hours, the plants are contaminated by spraying the leaves with an aqueous suspension of Sphaerotheca fuliginea spores. The contaminated gherkin plants are incubated for 72 hours at 18° C. and at 100% relative humidity and then for 12 days at 20° C. and at 70-80% relative humidity.
The test is evaluated 15 days after the inoculation. 0% means an efficacy which corresponds to that of the control plants while an efficacy of 100% means that no disease is observed.

Puccinia recondita = assay: In vivo preventive test on Puccinia recondita (brown rust on wheat); settings: evaluated 11 days after inoculation
Procedure: as §1, §2, §3, §4
After 24 hours, the plants are contaminated by spraying the leaves with an aqueous suspension of Puccinia recondita spores. The contaminated wheat plants are incubated for 24 hours at 20° C. and at 100% relative humidity and then for 10 days at 20° C. and at 70-80% relative humidity.
(§5) The test is evaluated 11 days after the inoculation. 0% means an efficacy which corresponds to that of the control plants while an efficacy of 100% means that no disease is observed.

Alternaria brassicae = assay: In vivo preventive test on Alternaria brassicae (leaf spot on radish); settings: 500 ppm of active ingredient, spray 24 hours before inoculation, evaluated 6 days after inoculation
Procedure: as §1, §2, §3
The young plants of radish are treated by spraying the active ingredient prepared as described above. Control plants are treated only with an aqueous solution of Acetone/Dimethyl sulfoxide/Tween® 80.
After 24 hours, the plants are contaminated by spraying the leaves with an aqueous suspension of Alternaria brassicae spores. The contaminated radish plants are incubated for 6 days at 20° C. and at 100% relative humidity.
The test is evaluated 6 days after the inoculation. 0% means an efficacy which corresponds to that of the control plants while an efficacy of 100% means that no disease is observed.

Pyrenophora teres = assay: In vivo preventive test on Pyrenophora teres (barley); settings: 500 ppm of active ingredient, evaluated 14 days after inoculation
Procedure: as §1, §2, §3
The young plants of barley are treated by spraying the active ingredient prepared as described above. Control plants are treated only with an aqueous solution of Acetone/Dimethyl sulfoxide/Tween® 80.
After 24 hours, the plants are contaminated by spraying the leaves with an aqueous suspension of Pyrenophora teres spores. The contaminated barley plants are incubated for 48 hours at 20° C. and at 100% relative humidity and then for 12 days at 20° C. and at 70-80% relative humidity.
The test is evaluated 14 days after the inoculation. 0% means an efficacy which corresponds to that of the control plants while an efficacy of 100% means that no disease is observed.

Uromyces appendiculatus = assay: In vivo preventive test on Uromyces appendiculatus (bean rust); settings: for pest or weed control at 500 ppm: Uromyces appendiculatus, 264 h
Procedure: as §1, §2, §3
The young plants of bean are treated by spraying the active ingredient prepared as described above. Control plants are treated only with an aqueous solution of Acetone/Dimethyl sulfoxide/Tween® 80.
After 24 hours, the plants are contaminated by spraying the leaves with an aqueous suspension of Uromyces appendiculatus spores. The contaminated bean plants are incubated for 24 hours at 20° C. and at 100% relative humidity and then for 10 days at 20° C. and at 70-80% relative humidity.
as §5

[1] = log P by HPLC on reversed-phase column (C 18), EEC Directive 79/831 Annex V.A8; assay type: physicochemical; settings: for chromatographic logP: reversed-phase HPLC column (C 18)
Procedure: In table 1, the log P values were determined in accordance with EEC Directive 79/831 Annex V.A8 by HPLC (High Performance Liquid Chromatography) on a reversed-phase column (C 18), using the method described below:
Temperature: 40° C.; Mobile phases: 0.1% aqueous formic acid and acetonitrile; linear gradient from 10% acetonitrile to 90% acetonitrile.
Calibration was carried out using unbranched alkan-2-ones (comprising 3 to 16 carbon atoms) with known log P values (determination of the log P values by the retention times using linear interpolation between two successive alkanones). lambda-max-values were determined using UV-spectra from 200 nm to 400 nm and the peak values of the chromatographic signals.

[2] = 500 ppm of active ingredient, evaluated 11 days after inoculation
[3] = 500 ppm, evaluated 11 days after inoculation, Table F2 comparison, read-out: Efficacy
[4] = Table 1, HPLC C 18, 40° C., 0.1% aqueous formic acid and acetonitrile, gradient 10% to 90% acetonitrile, two values = mixture of endo and exo isomers

Row | SMILES | Efficacy (Septoria tritici) | Efficacy (Sphaerotheca fuliginea; 500 ppm of active ingredient) | Efficacy (Puccinia recondita; 500 ppm of active ingredient) | Efficacy (Alternaria brassicae) | Efficacy (Pyrenophora teres) | logP [1, 4] | further results
1 | Cn1nc(C(F)F)c(C(=O)N(Cc2ccccc2C2CC3CCC2C3)C2CC2)c1Cl (mixture of isomers) [I.02] | 86% | 98% | 88% | – | – | – | –
2 | Cn1nc(C(F)F)c(C(=O)N(Cc2ccccc2C2CC3CCC2C3)C2CC2)c1F (mixture of isomers) [I.03] | 100% | 100% | 98% | 96% | 100% | – | Efficacy (Uromyces appendiculatus; [2]): 100%
3 | O=C(c1ccsc1Br)N(Cc1ccccc1C1CC2CCC1C2)C1CC1 (mixture of isomers) [I.04] | 79% | – | – | – | – | – | –
4 | Cn1cc(C(=O)N(Cc2ccccc2C2CC3CCC2C3)C2CC2)c(C(F)F)n1 (mixture of isomers) [I.05] | 86% | 95% | 94% | 80% | 71% | – | Efficacy (Uromyces appendiculatus; [2]): 91%
5 | Cn1nc(C(F)F)c(C(=S)N(Cc2ccccc2C2CC3CCC2C3)C2CC2)c1F (mixture of isomers) [I.18] | 100% | 100% | 88% | 97% | 94% | – | Efficacy (Uromyces appendiculatus; [2]): 100%
6 | Cn1cc(C(=S)N(Cc2ccccc2C2CC3CCC2C3)C2CC2)c(C(F)F)n1 (mixture of isomers) [I.19] | 98% | 95% | 88% | 75% | – | – | –
7 | Cc1nn(C)c(F)c1C(=O)N(Cc1ccccc1C1CCCC1)C1CC1 [CMP4, N-(2-cyclopentylbenzyl)-N-cyclopropyl-5-fluoro-1,3-dimethyl-1H-pyrazole-4-carboxamide, reference compound] | – | – | – | – | – | – | pest or weed control at 500 ppm (Uromyces appendiculatus; [3]): < 40%
8 | Cn1nc(C(F)F)c(C(=O)N(Cc2ccccc2C2CCCCC2)C2CC2)c1F [CMP5, N-(2-cyclohexylbenzyl)-N-cyclopropyl-3-(difluoromethyl)-5-fluoro-1-methyl-1H-pyrazole-4-carboxamide, reference compound] | – | – | – | – | – | – | pest or weed control at 500 ppm (Uromyces appendiculatus; [3]): < 40%
9 | Cn1cc(C(=O)N(Cc2ccccc2C2CCCCC2)C2CC2)c(C(F)F)n1 [CMP6, N-(2-cyclohexylbenzyl)-N-cyclopropyl-3-(difluoromethyl)-1-methyl-1H-pyrazole-4-carboxamide, reference compound] | – | – | – | – | – | – | pest or weed control at 500 ppm (Uromyces appendiculatus; [3]): < 40%
10 | CC(c1ccccc1C1CCCC1)N(C(=O)c1c(C(F)F)nn(C)c1Cl)C1CC1 (stereo not shown) [CMP7, 5-chloro-N-[1-(2-cyclopentylphenyl)ethyl]-N-cyclopropyl-3-(difluoromethyl)-1-methyl-1H-pyrazole-4-carboxamide, reference compound] | – | – | – | – | – | – | pest or weed control at 500 ppm (Uromyces appendiculatus; [3]): < 40%
11 | CC(c1ccccc1C1=CCCCC1)N(C(=O)c1c(C(F)F)nn(C)c1F)C1CC1 (stereo not shown) [CMP8, N-{1-[2-(cyclohex-1-en-1-yl)phenyl]ethyl}-N-cyclopropyl-3-(difluoromethyl)-5-fluoro-1-methyl-1H-pyrazole-4-carboxamide, reference compound] | – | – | – | – | – | – | pest or weed control at 500 ppm (Uromyces appendiculatus; 500 ppm, evaluated 11 days after inoculation, Table F3 comparison, read-out: Efficacy): < 55%
12 | Cc1nn(C)c(F)c1C(=O)N(Cc1ccccc1C1CC2CCC1C2)C1CC1 (stereo not shown) [I.01, N-[2-(bicyclo[2.2.1]hept-2-yl)benzyl]-N-cyclopropyl-5-fluoro-1,3-dimethyl-1H-pyrazole-4-carboxamide] | 100% | 100% | 100% | – | 100% | 4.24 | chromatographic logP [1, 4]: 4.16; pest or weed control at 500 ppm (Uromyces appendiculatus; read-out: Efficacy, 500 ppm of active ingredient, evaluated 11 days after inoculation): 100%; pest or weed control at 500 ppm (Uromyces appendiculatus; read-out: Efficacy, 500 ppm, evaluated 11 days after inoculation, Table F2 comparison): ≥ 80%; Efficacy (Sphaerotheca fuliginea; 100 ppm, Table E2 comparison): total protection
13 | Cn1nc(C(F)F)c(C(=S)N(Cc2ccccc2C2CC3CCC2C3)C2CC2)c1Cl (stereo not shown) [I.06] | 88% | 98% | 88% | – | 75% | 5.45 | Efficacy (Uromyces appendiculatus; [2]): 99%
14 | Cn1nc(C(F)F)c(C(=O)N(Cc2ccccc2C23CCCC2C3(Cl)Cl)C2CC2)c1F (stereo not shown) [I.07, N-cyclopropyl-N-[2-(6,6-dichlorobicyclo[3.1.0]hex-1-yl)benzyl]-3-(difluoromethyl)-5-fluoro-1-methyl-1H-pyrazole-4-carboxamide] | 94% | 100% | 94% | – | 81% | – | chromatographic logP [1, 4]: 4.46; pest or weed control at 500 ppm (Uromyces appendiculatus; 500 ppm of active ingredient, evaluated 11 days after inoculation, read-out: Efficacy): 100%
15 | Cn1nc(C(F)F)c(C(=O)N(Cc2cc(Cl)ccc2C23CCCC2C3(Cl)Cl)C2CC2)c1F (stereo not shown) [I.08] | 94% | 100% | 88% | – | 81% | 4.85 | Efficacy (Uromyces appendiculatus; [2]): 99%
16 | Cn1nc(C(F)F)c(C(=O)N(Cc2cc(C34CCCC3C4(Cl)Cl)ccc2Cl)C2CC2)c1F (stereo not shown) [I.09] | 100% | 100% | – | 75% | 88% | 4.90 | Efficacy (Uromyces appendiculatus; [2]): 84%
17 | Cn1nc(C(F)F)c(C(=O)N(Cc2ccccc2C23CCCCC2C3(Cl)Cl)C2CC2)c1F (stereo not shown) [I.10] | 88% | 100% | 88% | – | – | 4.82 | –
18 | Cn1nc(C(F)F)c(C(=O)N(Cc2cc(Cl)ccc2C23CCCCC2C3(Cl)Cl)C2CC2)c1F (stereo not shown) [I.11] | 75% | 100% | 75% | 75% | – | 5.22 | –
19 | Cn1nc(C(F)F)c(C(=O)N(Cc2cc(C34CCCCC3C4(Cl)Cl)ccc2Cl)C2CC2)c1F (stereo not shown) [I.12] | 94% | 100% | – | 97% | 75% | 5.25 | –
20 | Cn1nc(C(F)F)c(C(=O)N(Cc2cc(Cl)ccc2C23CCCCCC2C3(Cl)Cl)C2CC2)c1F (stereo not shown) [I.14] | 94% | 100% | 75% | 83% | – | 5.54 | –
21 | Cn1cc(C(=O)N(Cc2ccccc2C2=CC3CCC2(C)C3(C)C)C2CC2)c(C(F)(F)F)c1 (stereo not shown) [I.22] | – | – | – | – | – | 5.72 | –
22 | Cn1nc(C(F)F)c(C(=O)N(Cc2cc(CC3C4CCC(C4)C3(C)C)ccc2C(C)(C)C)C2CC2)c1F (stereo not shown) [I.23] | – | – | – | – | – | 7.09 | Efficacy (Sphaerotheca fuliginea; at 100 ppm (note 1)): 100^(1) %; Efficacy (Puccinia recondita; at 100 ppm (note 1)): 79^(1) %
23 | c1ccc(C2CC3CCC2C3)c(CNC2CC2)c1 (stereo not shown) [IIa.1, N-[2-(bicyclo[2.2.1]hept-2-yl)benzyl]cyclopropanamine] | – | – | – | – | – | – | chromatographic logP ([1]; Table 2 (amines IIa), same HPLC method, broad signal): 2.01

From US9770022B2, “N-cycloalkyl-N-[(bicyclylphenyl)methylene]-(thio)carboxamide derivatives” (BAYER CROPSCIENCE AG, priority 2013, dated 2017)
